Consider 26 molecules from PubChem BioAssay AID504481 (NMMLSC, 2011).

Each structure is given as a SMILES string. Active and inactive are the calls of the source.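 Rule for the calls: active = fold change below 0.65 in a panel strain, matching the primary screen cutoff; inactive = the rest.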

Some test systems named below: YCL025C; YNL142W; YBR084C-A; YCR005C; BY4741; YKL103C.
Test in all cases: GFP reporter expression in transducer deletion yeast, mechanism study for yeast TOR pathway modulator project, S. cerevisiae, transducer mutant strains, GFP-tagged proteins (AID 504481);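 note: 1 = DMSO wells as ratio of mean channel GFP fluorescence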
Common to all, as to conditions: S. cerevisiae transducer mutants, GFP-fusion expression, flow cytometry, 3 h
A general note: Flow cytometry measures light scatter and fluorescence of single cells or particles in a stream.

As for `O=S(=O)(CCN(CCS(=O)(=O)C(F)(F)F)CC1CCCO1)C(F)(F)F` (stereo unspecified), the fold change was 0.948 (inactive) in the test on YCL025C; 0.965 (inactive) in the test with YNL142W; 0.989 (inactive) in the test on YBR084C-A; 1.23 (inactive) with YCR005C; 0.957 (inactive) in the test on BY4741; 1.89 in the test with YKL103C.

As to `CC(C)(C)C(=O)NC(=S)NNC(=O)c1ccc(-c2ccccc2)cc1`, the fold change is 1.32 (inactive) in the test on YCL025C; 1.46 (inactive) with YNL142W; 1.19 (inactive) in the test with YBR084C-A; 1.2 (inactive) with YCR005C; 1.48 (inactive) in the test on BY4741; 2.06 with YKL103C.

As to `N/C(Cc1ccc(Cl)cc1)=N\OC(=O)c1cccc2ccccc12`, the fold change with YCL025C is 0.919 (inactive); in the test with YNL142W it was 1.22 (inactive); in the test on YBR084C-A it was 0.913 (inactive); in the test on YCR005C, 2.47; in the test with BY4741 it was 1.27 (inactive); in the test with YKL103C, 1.44 (inactive).

Take `O=C(OCn1ncc(Br)c(Br)c1=O)c1c(F)cccc1F`: the fold change is 0.921 (inactive) in the test on YCL025C; 0.911 (inactive) with YNL142W; 0.936 (inactive) in the test with YBR084C-A; 1.48 (inactive) with YCR005C; 0.865 (inactive) with BY4741; 1.31 (inactive) in the test with YKL103C.

Consider `Clc1ccc(N=c2ssnc2Cl)cc1`, for which the fold change with YCL025C is 0.846 (inactive); in the test with YNL142W it was 0.957 (inactive); with YBR084C-A, 0.99 (inactive); in the test with YCR005C, 0.981 (inactive); in the test with BY4741, 1.08 (inactive); in the test with YKL103C it was 1.45 (inactive).

With `O=[N+]([O-])c1cc(S(=O)(=O)C(F)(F)F)ccc1Sc1nc2ccccc2s1`, the fold change was 1.09 (inactive) with YCL025C; 1.02 (inactive) in the test with YNL142W; 1.03 (inactive) in the test on YBR084C-A; 1.09 (inactive) in the test on YCR005C; 1.03 (inactive) with BY4741; 2.03 with YKL103C.

`CC(=O)c1ccc(N2CCN(C(=O)c3ccc(Br)cc3)CC2)c(F)c1`: the fold change was 1.22 (inactive) with YCL025C; 1.3 (inactive) in the test on YNL142W; 1.27 (inactive) in the test with YBR084C-A; 1.72 with YCR005C; 1.31 (inactive) in the test with BY4741; 1.69 with YKL103C.

For the molecule `CCSc1nnc(NC(=O)c2ccccn2)s1`, the fold change in the test on YCL025C was 0.982 (inactive); in the test on YNL142W it was 1.05 (inactive); in the test on YBR084C-A, 0.968 (inactive); in the test with YCR005C, 0.897 (inactive); with BY4741 it was 0.946 (inactive); in the test with YKL103C, 1.13 (inactive).

With `CCOC(=O)c1c(C)oc2c1c(C(c1cccnc1)N1CCOCC1)c(O)c1ccccc12` (stereo unspecified), the fold change with YCL025C is 0.907 (inactive); in the test on YNL142W it was 1.26 (inactive); in the test on YBR084C-A it was 0.759 (inactive); in the test on YCR005C, 1.27 (inactive); with BY4741, 1.18 (inactive); in the test with YKL103C, 1.36 (inactive).

Consider `CO[C@H]1C[C@@H]2CC[C@@H](C)[C@@](O)(O2)C(=O)C(=O)N2CCCC[C@H]2C(=O)O[C@H]([C@H](C)C[C@@H]2CC[C@@H](O)[C@H](OC)C2)CC(=O)[C@H](C)/C=C(\C)[C@@H](O)[C@@H](OC)C(=O)[C@H](C)C[C@H](C)/C=C/C=C/C=C/1C`, for which the fold change in the test with YCL025C is 2.29; with YNL142W, 12.2; with YBR084C-A, 0.616; with YCR005C it was 3.51; in the test on BY4741, 1.12 (inactive); with YKL103C it was 2.54.

On to `CSC1=NS(=O)(=O)c2c(C)nn(C)c2S1`, for which the fold change in the test on YCL025C is 0.969 (inactive); in the test on YNL142W, 0.896 (inactive); with YBR084C-A, 0.857 (inactive); in the test with YCR005C, 0.841 (inactive); in the test with BY4741, 0.902 (inactive); in the test on YKL103C it was 1.3 (inactive).

Consider `O=[N+]([O-])c1cc(O)c2ncccc2c1`, for which the fold change is 0.835 (inactive) in the test with YCL025C; 0.761 (inactive) in the test with YNL142W; 0.972 (inactive) in the test with YBR084C-A; 0.721 (inactive) with YCR005C; 0.838 (inactive) in the test on BY4741; 1.13 (inactive) in the test on YKL103C.

`Cc1ccc(S(=O)(=O)c2ncccc2[N+](=O)[O-])cc1`: the fold change in the test on YCL025C was 0.853 (inactive); in the test with YNL142W, 0.701 (inactive); with YBR084C-A, 0.924 (inactive); in the test with YCR005C, 0.87 (inactive); in the test on BY4741, 1 (inactive); in the test with YKL103C, 1.33 (inactive).

As to `CC(C)(C)n1nc(-c2ccc(Cl)cc2)c2c(N)ncnc21`, the fold change in the test on YCL025C is 0.899 (inactive); with YNL142W, 0.924 (inactive); in the test with YBR084C-A it was 0.489; in the test on YCR005C, 0.358 (inactive); in the test on BY4741, 0.757 (inactive); in the test with YKL103C, 1.03 (inactive).

Take `Cc1ccc(C(=O)NNC(=S)NC(=O)COc2ccccc2)cc1`: the fold change with YCL025C was 1 (inactive); in the test on YNL142W, 1.08 (inactive); with YBR084C-A, 1.19 (inactive); with YCR005C, 1.34 (inactive); in the test with BY4741, 1.28 (inactive); with YKL103C it was 1.93.

Take `Cn1ncc(S(=O)(=O)Cc2ccccc2)c(Cl)c1=O`: the fold change with YCL025C is 1.13 (inactive); with YNL142W, 1.47 (inactive); with YBR084C-A, 0.743 (inactive); in the test with YCR005C it was 1.24 (inactive); with BY4741 it was 1.33 (inactive); in the test on YKL103C, 1.83.

`O=C(OCC(=O)N1CCN(C(=O)c2ccco2)CC1)c1cc(-c2cccc(Br)c2)nc2ccccc12`: the fold change was 1.14 (inactive) in the test on YCL025C; 1.05 (inactive) with YNL142W; 0.779 (inactive) in the test with YBR084C-A; 1.29 (inactive) in the test on YCR005C; 0.913 (inactive) in the test with BY4741; 1.33 (inactive) with YKL103C.

For the molecule `Cc1ccc(C2=NOC(=O)/C2=C\c2ccc(C)o2)cc1`, the fold change is 0.812 (inactive) in the test with YCL025C; 1.11 (inactive) in the test with YNL142W; 0.943 (inactive) in the test on YBR084C-A; 1.25 (inactive) with YCR005C; 1.8 (inactive) with BY4741; 1.2 (inactive) in the test on YKL103C.

Regarding `CC1=NN(c2ccccc2)C(=O)C1C(c1ccccc1[N+](=O)[O-])C(C#N)C#N` (stereo unspecified), the fold change with YCL025C is 0.965 (inactive); in the test with YNL142W, 1.1 (inactive); with YBR084C-A it was 1.09 (inactive); in the test with YCR005C, 1 (inactive); in the test with BY4741 it was 1.12 (inactive); with YKL103C, 1.82.

Regarding `O=[N+]([O-])c1ccc(S(=O)(=O)c2cccc(C(F)(F)F)c2)nc1`, the fold change in the test on YCL025C was 0.901 (inactive); with YNL142W, 1.26 (inactive); in the test with YBR084C-A it was 0.793 (inactive); with YCR005C, 1.32 (inactive); with BY4741, 1.08 (inactive); in the test on YKL103C it was 1.49 (inactive).

In the case of `O=C(OCn1ncc(Br)c(Br)c1=O)c1ccc(F)cc1`, the fold change was 0.996 (inactive) in the test with YCL025C; 1.06 (inactive) in the test on YNL142W; 1.02 (inactive) in the test on YBR084C-A; 1.68 in the test on YCR005C; 0.946 (inactive) in the test with BY4741; 1.76 with YKL103C.

Turning to `O=C1ON=C(c2ccccc2)/C1=C\c1ccco1`, the fold change in the test with YCL025C is 1 (inactive); with YNL142W, 1.13 (inactive); in the test on YBR084C-A, 0.921 (inactive); in the test on YCR005C, 1.28 (inactive); in the test on BY4741, 0.924 (inactive); in the test with YKL103C, 1.95.

For the molecule `Cc1ccc(/C=C2/C(=O)ON=C2c2ccccc2)o1`, the fold change in the test with YCL025C was 0.837 (inactive); in the test on YNL142W it was 1.23 (inactive); in the test on YBR084C-A, 0.942 (inactive); in the test with YCR005C, 1.47 (inactive); in the test on BY4741 it was 1.42 (inactive); in the test on YKL103C, 1.61.

In the case of `c1ccc(-c2cccc(-c3ccccn3)n2)nc1`, the fold change in the test with YCL025C is 0.958 (inactive); in the test on YNL142W, 0.833 (inactive); in the test on YBR084C-A, 0.903 (inactive); in the test with YCR005C, 0.73 (inactive); with BY4741, 0.815 (inactive); with YKL103C, 1.41 (inactive).

On to `CCc1ccc(OCC(=O)NNC(=S)NC(=O)C2CC2)c(Br)c1`, for which the fold change in the test on YCL025C was 1.03 (inactive); in the test with YNL142W it was 1.15 (inactive); in the test on YBR084C-A it was 1.09 (inactive); in the test with YCR005C it was 1.17 (inactive); in the test with BY4741 it was 1.54 (inactive); with YKL103C, 2.4.

As for `O=C(CCc1ccccc1)NNC(=S)NC(=O)c1ccccc1`, the fold change is 0.995 (inactive) in the test on YCL025C; 1.2 (inactive) in the test on YNL142W; 1.22 (inactive) with YBR084C-A; 1.32 (inactive) with YCR005C; 1.64 (inactive) in the test with BY4741; 2.56 in the test with YKL103C.
